In PMC10232738, “Five blueberry anthocyanins and their antioxidant, hypoglycemic, and hypolipidemic effects in vitro” (Frontiers in Nutrition, 2023):
Marks after values point to notes of the source that are not given here.

How the values were obtained:
HepG2 cells [1] = experiment: 2-NBDG glucose uptake in HG-OA stimulated HepG2 cells; type: cell-based, Human; conditions: 12 h, HG-OA (36 mM glucose, 0.25 mM OA) treated HepG2, p < 0.001 vs model
Procedure: (§1) HepG2 cells were starved in DMEM with 2% FBS for 9 h. To establish an in vitro model of diabesity, cells were stimulated with high glucose (36 mM glucose) and 0.25 mM OA for 12 h according to our previous study ([14]). Then, BB1-BB5 (50 and 100 μM) and Met (100 μM) were added for another 12 h. OA or BB1-BB5 was dissolved in DMSO and added to HepG2 cells in DMEM, and the final DMSO concentration received by the cells was 0.1% (v/v).
After the model was established, HepG2 cells were treated with BB1-BB5 (50 and 100 μM in low and high doses, respectively) for 12 h. 2-NBDG, a fluorescent deoxyglucose, was added to measure glucose uptake ([15]). The culture solution was discarded, and 2-NBDG (100 μM, diluted in DMEM without serum) was added and incubated again for 40 min. […] In total, eight parallels were set up for each sample.

[2] = ABTS radical cation scavenging assay; conditions: 6 min, 734 nm, mean ± SD (n = 3)
Procedure: The ABTS assay was performed as the reported method ([10]). Briefly, ABTS^+ radical cation was prepared by mixing a 7 mM aqueous stock solution of ABTS^+ and 2.6 mM potassium peroxydisulfate. The reaction mixture was stored in the dark at room temperature for 12 h prior to use. […] Then, 50 μl of the test solution was added to 200 μl of the ABTS^+ radical cation solution. […] A blank sample containing ABTS^+ solution was measured.

α-glucosidase = α-glucosidase inhibitory activity assay (p-NPG substrate); type: biochemical, Saccharomyces cerevisiae; conditions: pH 6.9, 37°C, mean ± SD (n = 3)
Description: Acetonitrile, methanol, and formic acid (HPLC grade) were obtained from Tedia Co. Inc. (Fairfield, OH, USA). Ethanol and phosphoric acid were purchased from Sinopharm Chemical Reagent Co. Ltd. (Shanghai, China). Folin-Ciocalteu's phenol reagent, 2,2-diphenyl-1-picrylhydrazyl (DPPH), 2,2′-azinobis-3-ethylbenzothiazoline-6-sulfonic acid (ABTS), α-glucosidase (from Saccharomyces cerevisiae), 4-nitrophenyl-α-D-glucose (p-NPG), and 6-hydroxy-2,5,7,8-tetramethylchroman-2-carboxylic acid (Trolox) were obtained from Sigma-Aldrich (St. Louis, MO, USA). Sodium fluorescein, 2,2′-azobis-2-amidino-propane (AAPH), metformin (Met), oleic acid (OA), and 2-[N-(7-Nitrobenz-2-oxa-1,3-diazol-4-yl)amino]-2-deoxy-D-glucose (2-NDBG) were obtained from Aladdin (Shanghai, China). The assay kits of triglycerides (TG), total cholesterol (TC), and oil-red-O staining were obtained from Jiancheng Bioengineering Institute (Nanjing, China). The BCA assay kit was obtained from Biosharp (Hefei, China). Dulbecco's modified Eagle's medium (DMEM), penicillin-streptomycin, and fetal bovine serum (FBS) were purchased from Invitrogen-Gibco (Grand Island, NY). The chemicals and reagents used in this study were all of pure analytical grade.
The α-glucosidase inhibitory activity was determined as previous methods with slight modifications ([12]). In short, the diluted sample working solution (1 μl) was added to 3 μl of α-glucosidase (0.5 U/ml in 0.1 M sodium phosphate buffer, pH 6.9) and 156 μl of 0.1 M sodium phosphate buffer (pH 6.9). Then, the mixture was incubated at 37°C for 20 min, and 40 μl of 1.5 mM p-NPG (dissolved in 100 mM sodium phosphate buffer, pH 6.9) was added and incubated for 20 min. Absorbance was measured by a microplate reader (Molecular Device, Sunnyvale, CA, USA). A complete reaction mixture without a sample was used as the control. Three parallel operations were performed. All the samples were analyzed in triplicate at five different concentrations around the IC50 values.

HepG2 cells [3] = experiment: Intracellular total cholesterol (TC) in HG-OA stimulated HepG2 cells; type: cell-based, Human; conditions: 12 h, HG-OA treated HepG2, vs model group
Procedure: as §1
After the model was established, HepG2 cells were treated with BB1–BB5 (50 and 100 μM in low and high doses, respectively) in 6-well plates for 12 h. The culture solution was discarded, and 200 μl of RIPA lysis buffer was added after three washes with PBS and placed on a shaker for 10 min. The cell contents were homogenized and centrifuged (4°C, 10,000 rpm) to extract the supernatant. The TC and TG level in HepG2 cells were tested using the commercial kit by glycerol phosphate oxidase (GPO)-peroxidase (PAP) method based on several enzyme-driven reactions. The end product, hydrogen peroxide, which can be oxidatively coupled with 4-aminoantipyrine and phenol in the presence of peroxidase to yield a chromogen, was measured at 500 nm ([16]). In total, eight replicates were set for each sample.

[4] = Oxygen radical absorbance capacity (ORAC) assay; conditions: Trolox equivalents, pH 7.4, mean ± SD (n = 3)
Procedure: The oxygen radical absorbance capacity (ORAC) assay was performed according to the reported method with slight modifications ([11]). The assay was carried out in black-walled 96-well plates. Tested compounds were dissolved in 75 mM phosphate buffer (pH 7.4). […] A blank sample containing 20 μl of phosphate buffer in the reaction mix was prepared and measured. The area under the curve (AUC) was calculated for each sample by integrating the relative fluorescence curve. The net AUC of the sample was calculated by subtracting the AUC of the blank. The regression equation between net AUC and series concentration of Trolox was determined to establish a standard curve, and ORAC values were expressed as μmol Trolox equivalents/μmol samples using the standard curve established previously. All samples were analyzed in triplicate.

[5] = DPPH radical scavenging assay; conditions: 30 min, 517 nm, mean ± SD (n = 3)
Procedure: DPPH assay was determined according to the reported method ([10]). The tested compounds were dissolved in ethanol and diluted to a series of concentrations to be used as test solutions. A total of 100 μl 0.16 mmol/L DPPH in methanol (5 mg/100 ml) was mixed with 100 μl of the test solution. […] A blank sample containing 100 μl of methanol in the DPPH solution was measured. The same procedure was followed for the positive control, ascorbic acid. All samples were analyzed in triplicate at five different concentrations around the EC50 values.

SMILES | Glucose uptake capacity (2-NBDG fluorescence) (HepG2 cells [1]; 50 μM) | Glucose uptake capacity (2-NBDG fluorescence) (HepG2 cells [1]; 100 μM) | EC50 [2] [µM] | IC50 (α-glucosidase) [µM] | Intracellular TC levels (HepG2 cells [3]; 100 μM) | ORAC [4] | EC50 [5] [µM] | Intracellular TC levels (HepG2 cells [3]; 50 μM)
COc1cc(-c2[o+]c3cc(O)cc(O)c3cc2OC2OC(CO)C(O)C(O)C2O)cc(OC)c1O (centres unmarked) [BB5, malvidin-3-O-galactoside] | significant increase | significant increase | 14.3 ± 1 | 185 ± 10.9 | noticeably reduced | 11.89 ± 0.13^b μmol Trolox/μmol | 38.8 ± 3.33 | 
COc1cc(-c2[o+]c3cc(O)cc(O)c3cc2OC2OC(CO)C(O)C(O)C2O)cc(O)c1O (centres unmarked) [BB3, petunidin-3-O-galactoside] | significant increase | significant increase | 24.2 ± 1.88 | 68.5 ± 20.9 | noticeably reduced | 11.31 ± 0.22^c μmol Trolox/μmol | 63.2 ± 2 | 
OCC1OC(Oc2cc3c(O)cc(O)cc3[o+]c2-c2cc(O)c(O)c(O)c2)C(O)C(O)C1O (centres unmarked) [BB1, delphinidin-3-O-galactoside] |  |  | 19 ± 0.2 | 68.3 ± 12.4 |  | 13.23 ± 0.03^a μmol Trolox/μmol | 39.91 ± 0.24 | 
OC[C@H]1O[C@@H](Oc2cc3c(O)cc(O)cc3[o+]c2-c2cc(O)c(O)c(O)c2)[C@H](O)[C@@H](O)[C@@H]1O [BB2, delphinidin-3-O-glucoside] |  | significant increase | 20.7 ± 0.67 | 240 ± 9.2 |  | 9.44 ± 0.12^d μmol Trolox/μmol | 61.4 ± 2.29 | 
COc1cc(-c2[o+]c3cc(O)cc(O)c3cc2O[C@@H]2O[C@H](CO)[C@@H](O)[C@H](O)[C@H]2O)cc(O)c1O [BB4, petunidin-3-O-glucoside] |  | significant increase | 39.3 ± 1.55 | 218 ± 22.7 | noticeably reduced | 11.02 ± 0.16^c μmol Trolox/μmol | 62.11 ± 0.27 | noticeably reduced
O=C1O[C@H]([C@@H](O)CO)C(O)=C1O [ascorbic acid, reference compound] |  |  | 44.5 ± 0.55 |  |  |  | 112 ± 15.3 | 
